Experimental data from patent US10266482B2, “Long-term memory inducing agent” (NATIONAL UNIVERSITY CORPORATION TOKYO MEDICAL AND DENTAL …, priority 2017, dated 2019).

What was measured:
Assay type in all cases: in vivo, ICR mice
[1] = Measurement of brain AMK level after intraperitoneal administration; conditions: 1 mg/kg bw intraperitoneal
Description: (§1) 8-week-old male ICR mice were purchased. Each of the experiment individuals was raised in an individual cage, and adapted to the raising environment for at least a week before use. The rearing room was kept at 22° C. at cycles of 12 hours of light period/12 hours of dark period, and feed and drinking water were given freely. All of the experiments were conducted during the latter 6 hours of the light period.
(§2) N(1)-acetyl-5-methoxykynuramine (AMK) was used as a drug. AMK was diluted with physiological saline. In the administration experiment, a dosage of 0.001 mg-1 mg/3.65 ml/kg bw was intraperitoneally administered.
1 mg/kg bw of AMK was intraperitoneally administered, and 5, 15, 30, 60, 120 and 240 minutes later, the hippocampus and a region including the perirhinal cortex of the temporal lobe that was assumed to be involved in object recognition memory were collected to measure the AMK levels with a high-performance liquid chromatograph mass spectrometer. As a control group, AMK levels in untreated individuals were also measured

[2] = test system: young mice; test: Object recognition test (ORT) with young mice
Description: as §1, §2
For an object recognition test, two each of two types of objects (height 6 cm×diameter 4 cm, height 7 cm×diameter 7 cm) and an observation box (height 30 cm×width 40 cm×depth 30 cm) were used. This test consisted of an acquisition trial and a test trial, and the experimental individuals were allowed to explore in the observation box 5 minutes a day for 3 days immediately before the experiment in order to adapt the experimental individuals to the observation box. In the acquisition trial, two identical objects were presented to the observation box and the experimental individuals were allowed to search for a minute. When the acquisition trials were conducted for more than one time, the acquisition trials were conducted at one-hour intervals. The test trial was conducted 24 hours, or 4 or 7 days after the last acquisition trial. In the test trials, one of the two identical objects presented in the acquisition trials was exchanged with a different object (new object), and the experimental individuals were allowed to search for 5 minutes. During the test trials, the time that took each of the mice to search for the object was measured, and the ratio of the searching time of the two objects (DI value:discrimination index) was calculated according to the following formula to examine the relative cognitive levels to the new object. DI value (%)=Tn×100/(Tf+Tn)
The object recognition test was a method of evaluating the learning/memory function that utilizes mice's novelty-seeking behavior.
One-sample t-test was employed to compare the DI value with the expected value (50%). In each experiment, when comparison among individual groups was required, an unpaired t-test was employed for comparing two groups while multiple comparisons including one-way analysis of variance followed by Bonferroni test was conducted for comparing three or more groups.

[3] = test system: young mice; test: Object recognition test for young mice (melatonin and melatonin metabolites); conditions: i.p. 60 minutes after one one-minute acquisition trial, test trial 24 hours later
Description: (§3) Two-month-old male ICR mice (young mice) were used. The rearing room was kept at 22° C. at cycles of 12 hours of light period/12 hours of dark period, and feed and drinking water were given freely. All of the experiments were conducted during the latter 6 hours of the light period.
Melatonin (MEL), N(1)-acetyl-N(2)-formyl-5-methoxykynuramine (AFMK), and N(1)-acetyl-5-methoxykynuramine (AMK) were used as drugs. Melatonin was purchased from SIGMA Aldrich, AFMK was purchased from Cayman Chemical, and AMK was purchased from Toronto Research Chemicals. AFMK and AMK were diluted with physiological saline and intraperitoneally administered at a dosage of 0.01 mg/kg bw, 0.1 mg/kg bw or 1.0 mg/kg bw. MEL was diluted with physiological saline containing 1 vol % ethanol, and intraperitoneally administered at a dosage of 1.0 mg/kg bw or 5.0 mg/kg bw. As controls, physiological saline or physiological saline containing 1 vol % ethanol was intraperitoneally administered.
Test was conducted in the same manner as “5.3 Object recognition test” in Example 5.
(§4) Processing was conducted in the same manner as “5.4 Statistical processing” in Example 5.

[4] = test system: young mice; test: Object recognition test for young mice, AMK application to the scalp; conditions: 1 μl of 0.4 mg/μl in dimethyl sulfoxide applied to scalp 30 minutes before one 3-minute acquisition trial
Description: as §3
N(1)-acetyl-5-methoxykynuramine (AMK) was used as a drug. AMK was diluted with dimethyl sulfoxide to result a concentration of 0.4 mg/μl. One μl of the diluent was applied to each individual.
In order to examine the effect of AMK application to the skin, the scalps of the mice were depilated the day before the acquisition trial, AMK or dimethyl sulfoxide as a solvent was applied to 1 cm^2 of the scalp under inhalation anesthesia with isoflurane (Pfizer) 30 minutes before the acquisition trial, left for 5 minute to dry, and then the applied surface was protected with patchProtect (SmartPractice).
Test was conducted in the same manner as “5.3 Object recognition test” in Example 5 except that searching time was 3 minutes in the acquisition trial.
as §4

crossing of the blood-brain barrier [1]: cross the blood-brain barrier | time to reach and act in the brain following intraperitoneal administration [1]: about 5 minutes | AMK concentration in hippocampus and perirhinal cortex as compared to the control group ([1]; within 5 minutes, thereafter decreased with time): significantly increased
Compound: COc1ccc(N)c(C(=O)CCNC(C)=O)c1 [Compound 1, N-[3-(2-amino-5-methoxyphenyl)-3-oxopropyl]-acetamide]
long-term memory formation (DI value, test trial 24 hours later) ([2]; 0.001 mg/kg bw i.p. 15 minutes after single-time acquisition trial): a long-term memory was not formed | long-term memory formation (DI value, test trial 24 hours later) ([2]; 0.01 mg/kg bw i.p. 15 minutes after single-time acquisition trial): long-term memories were formed | long-term memory formation (DI value, test trial 24 hours later) ([2]; 0.1 mg/kg bw i.p. 15 minutes after single-time acquisition trial): long-term memories were formed | long-term memory formation (DI value, test trial 24 hours later) ([2]; 1 mg/kg bw i.p. 15 minutes after single-time acquisition trial): long-term memories were formed | duration of induced long-term memory ([2]; 1 mg/kg bw i.p. 15 minutes after single-time acquisition trial, test trials 1, 4 and 7 days later): at least 7 days | long-term memory formation (DI value, test trial 24 hours later) ([2]; 1 mg/kg bw i.p., administered from 60 minutes prior to 120 minutes following single-time acquisition trial): a long-term memory was formed | time of administration after the acquisition trial at which long-term memory was still induced ([2]; 1 mg/kg bw i.p., single-time acquisition trial): at least 120 minutes | administration amount sufficient to form a long-term memory in terms of human (60 kg) ([2]; converted from 0.01 mg/kg bw in mice): about 0.6 mg | administration concentration sufficient to form a long-term memory ([2]; i.p. 15 minutes after single-time acquisition trial): 0.01 mg/kg bw | concentration at which the effect of inducing long-term memories was found [3]: 0.1 mg/kg bw | long-term memory formation (DI value, test trial 24 hours later) [4]: a long-term memory was formed
